Patent publication US20130336940A1, “MODIFIED PIG ISLETS FOR DIABETES TREATMENT” (UNIVERSITE CATHOLIQUE DE LOUVAIN, priority 2011, published 2013)

Tests used:
isolated pig islets = assay: In vitro islet functionality (24 hr incubation at G5, G15, G15+Fsk; insulin/glucagon RIA); assay type: cell-based
Experimental: The following steps were performed with the samples kept on ice. […] The samples were then sonicated 4×20 seconds (Sonifier B 12 [Branson Sonic Power Company, Danbury, Conn., USA]) and centrifugated 10 minutes at 4° C. at 1500 rpm. The first supernatant formed was removed and kept at −20° C. […] The samples were then kept at −20° C. overnight. After a step of centrifugation 10 minutes at 4° C. at 1500 rpm, the second supernatant was removed and kept at −20° C. […] The three supernatants were then pooled and constituted the pancreas extract. Human insulin specific RIA KIT and Glucagon RIA KIT (Millipore, Billerica, Mass., USA) were used for the determination of the hormonal content in human/pig pancreatic extractions as well as in isolated islets (see below). The content of insulin and glucagon in the extracts was performed following the instructions of the manufacturer. […] After incubation overnight at room temperature, 1 mL of precipitating reagent were added, followed by incubation 20 minutes at 4° C. The samples were then centrifuged 20 minutes at 2000-3000×g at 4° C.
Three replicates per concentration were performed. Media were thereafter recovered for insulin and glucagon quantification and islets were transferred in acid-ethanol for hormones extraction and quantification by radioimmuno-assay (see above).

[1] = test system: islets from wild-type pigs; assay: Insulin release of wild-type pig islets with exogenous GLP-1; assay type: cell-based
Experimental: After isolation from wild-type pigs, islets were incubated overnight at 37° C., 5% CO2/95% O2 in RMPI medium containing 10% heat-inactivated FCS, 100 IU/ml penicillin, 100 μg/ml streptomycin and 5 mmol/l glucose. The function of islets in different culture conditions was assessed by 2 or 24 hr incubation of 200 islets in 1.5 ml buffer containing (i) 1 mmol/l glucose, (ii) 15 mmol/l glucose, (iii) 15 mmol/l glucose+[…] Forskolin (fsk) (Calbiochem-Behring, San Diego, Calif.) (added from a 1 mmol/l stock solution in DMSO), (iv) 15 mmol/l glucose+1 μmol/l fsk, (v) 15 mmol/l glucose+5 nM GLP-1 (Sigma Aldrich), (vi) 15 mmol/l glucose+50 nM GLP-1, (vii) 15 mmol/l glucose+500 nM GLP-1, (viii) 15 mmol/l glucose+1 μmol/l fsk+50 nM GLP-1. Three replicates per concentration were performed. Media were thereafter recovered for insulin quantification and islets were transferred in acid-ethanol for hormones extraction and quantification by radioimmuno-assay (Human insulin RIA kit, Millipore, Billerica, Mass., USA).

adult pig islets = settings: cited from earlier work
[2] = 15 mmol/l glucose + 1 μmol/l Fsk, native and treated pig islets

Compound: C=C[C@@]1(C)CC(=O)[C@]2(O)[C@@]3(C)[C@@H](O)CCC(C)(C)[C@@H]3[C@H](O)[C@H](OC(C)=O)[C@@]2(C)O1 [Fsk, Forskolin]
- increase in insulin secretion after G15+Fsk in comparison with G5 and G15 (isolated pig islets; 1 μmol/l Fsk, native and treated islets): 2 to 4 fold
- effect on glucagon secretion or content (isolated pig islets; [2]): No effect
- effect on insulin content (isolated pig islets; [2]): No effect

Compound: GLP-1: exogenous GLP-1 (Sigma Aldrich) added to wild-type pig islets
- increase of insulin release ([1]; 500 nM GLP-1, glucose 15 mM, 24 hrs incubation): 12%
- stimulation index (ratio of insulin release at glucose 15 mM vs. 1 mM) ([1]; GLP-1 at 500 nM): significant increase
- increase of insulin release in comparison to glucose 15 mM alone ([1]; GLP-1 at 50-500 nM, glucose 15 mM, 2 hrs incubation): 10%

Compound: glucagon: peptide hormone added to adult pig islets in cited literature studies
- increase of stimulation index (adult pig islets; acute exposure to 1 or 10 μM glucagon): 30%
- basal insulin release in comparison with control situation (adult pig islets; islets cultured in the presence of 10 μM glucagon): 2 fold
